The source of these data is patent US10517889B2, “Modulators of SMAD7 expression” (Ionis Pharmaceuticals, Inc., priority 2017, dated 2019).

The data set has as its system human SMAD7 mRNA. The data set is described as follows: Antisense inhibition of human SMAD7 mRNA expression in Hep3B cells by 3-10-3 cEt gapmers, 10,000 nM, electroporation (Example 2). It is filed as cell-based. To be noted: approximately 24 hours. In short, it runs like this: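 Hep3B, 20,000 cells/well; electroporation, 10,000 nM ASO; ~24 h. Readout: SMAD7 mRNA by qRT-PCR (RTS5062), RIBOGREEN-normalised; % inhibition vs untreated.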

The mark [1] stands for this setting: SMAD7 mRNA, Hep3B cells, 10,000 nM antisense oligonucleotide, electroporation, primer probe set RTS5062, relative to untreated control cells.
Setting [2] is: Hep3B cells, electroporation with 10,000 nM antisense oligonucleotide, SMAD7 mRNA by RT-PCR (RTS5062), relative to untreated control cells.
Where [3] appears, read: Hep3B cells, electroporation with 10,000 nM antisense oligonucleotide, primer probe set RTS5062, relative to untreated control cells.
Setting [4] is: Hep3B cells, 10,000 nM antisense oligonucleotide, electroporation, RT-PCR primer probe set RTS5062, relative to untreated control cells.
Where [5] appears, read: SMAD7 mRNA, Hep3B cells, electroporation with 10,000 nM antisense oligonucleotide, primer probe set RTS5062, relative to untreated control cells.
Setting [6] is: Hep3B cells, electroporation, 10,000 nM antisense oligonucleotide, RTS5062, relative to untreated control cells.
Where [7] appears, read: Hep3B cells, electroporation with 10,000 nM antisense oligonucleotide, RTS5062, percent inhibition of SMAD7 mRNA relative to untreated control cells.

Strand notation (5' to 3'): a small letter for the sugar, then the base; units joined by * are phosphorothioate-linked, units joined directly phosphodiester-linked; [ ] holds rarer units or linkages, { } end groups; capitals alone tell only the bases. k = constrained ethyl (cEt); [5mC] = 5-methylcytosine; d = 2'-deoxy (DNA)

Regarding “829766 (antisense k[5mC]*kT*kG*d[5mC]*d[5mC]*dG*d[5mC]*dT*d[5mC]*d[5mC]*dT*dT*d[5mC]*kA*kG*kT) [compound 829766]”, the % Inhibition (usually the change of the read-out against control, counted positive when it falls) under setting [1] is given as 32%.

“830136 (antisense kG*kA*kA*dA*dG*dT*dA*d[5mC]*dA*dA*dT*d[5mC]*dT*k[5mC]*k[5mC]*kT) [compound 830136]”: the “% Inhibition” value under setting [2] is given as 64%.

Consider “799130 (antisense kG*kT*k[5mC]*d[5mC]*d[5mC]*dT*d[5mC]*d[5mC]*d[5mC]*dA*dG*dG*dG*kA*k[5mC]*kA) [compound 799130]”, for which the “% inhibition of SMAD7 mRNA expression” value under setting [3] is reported as 1%.

As to “799373 (antisense kA*kA*k[5mC]*d[5mC]*dG*dT*d[5mC]*dT*dT*d[5mC]*d[5mC]*d[5mC]*dA*kT*k[5mC]*kT) [compound 799373]”, the “% Inhibition” value under setting [2] was determined as 56%.

“772571 (antisense k[5mC]*k[5mC]*kG*dT*dA*dA*dG*dA*dT*dT*d[5mC]*dA*d[5mC]*kA*kG*k[5mC]) [compound 772571]”: under setting [1], the “% Inhibition” value is reported as 50%.

For “798655 (kG*kG*k[5mC]*d[5mC]*d[5mC]*dG*d[5mC]*dG*d[5mC]*d[5mC]*d[5mC]*dT*dG*k[5mC]*kG*k[5mC]; antisense) [compound 798655]”, the “% inhibition of SMAD7 mRNA expression” value under setting [3] amounted to 21%.

“830158 (antisense kA*kA*kT*dT*dG*dA*dG*dA*dA*d[5mC]*dT*dG*dT*kG*k[5mC]*k[5mC]) [compound 830158]”: the “% Inhibition” value under setting [2] was 43%.

As for “799110 (antisense kA*kG*kG*d[5mC]*dA*dG*dT*dG*d[5mC]*dT*dG*dA*dG*k[5mC]*kT*kG) [compound 799110]”, under setting [3], the “% inhibition of SMAD7 mRNA expression” value amounted to 33%.

“830150 (antisense k[5mC]*kA*kG*dT*dG*dG*dT*dG*dA*d[5mC]*d[5mC]*dT*d[5mC]*k[5mC]*k[5mC]*kT) [compound 830150]”: under setting [2], the “% Inhibition” value came to 51%.

For “790513 (k[5mC]*kA*k[5mC]*d[5mC]*dA*dG*d[5mC]*dT*dG*dA*d[5mC]*dT*d[5mC]*kT*kT*kG; antisense) [compound 790513]”, under setting [4], the “% Inhibition” value is listed as 10%.

As to “830021 (antisense kG*kG*kG*dA*dA*dA*dG*dG*d[5mC]*d[5mC]*d[5mC]*dA*dA*k[5mC]*kA*kG) [compound 830021]”, the “% Inhibition” value under setting [2] is given as 42%.

“799350 (kA*kT*kT*d[5mC]*d[5mC]*dT*dA*dG*d[5mC]*dG*d[5mC]*dA*d[5mC]*kT*k[5mC]*kG; antisense) [compound 799350]”: under setting [2], the “% Inhibition” value is 31%.

For “799335 (kT*kG*k[5mC]*dA*dG*dG*dA*dG*d[5mC]*dA*dG*dT*dG*k[5mC]*k[5mC]*k[5mC]; antisense) [compound 799335]”, the “% Inhibition” value under setting [2] worked out at 31%.

“798738 (antisense k[5mC]*kT*kT*d[5mC]*dA*dG*dA*dT*d[5mC]*d[5mC]*dG*d[5mC]*d[5mC]*kT*k[5mC]*kG) [compound 798738]”: under setting [2], the “% Inhibition” value is recorded as 25%.

With “799982 (k[5mC]*kA*k[5mC]*d[5mC]*dA*d[5mC]*dG*d[5mC]*d[5mC]*dT*d[5mC]*dG*d[5mC]*kT*kA*kA; antisense) [compound 799982]”, the “% Inhibition” value under setting [2] turned out to be 0%.

Turning to “798788 (kT*k[5mC]*kT*dG*dG*dA*dG*dT*dA*dA*dG*dG*dA*kG*kG*kG; antisense) [compound 798788]”, under setting [3], the “% inhibition of SMAD7 mRNA expression” value turned out to be 31%.

In the case of “829952 (kA*k[5mC]*k[5mC]*d[5mC]*dG*dT*d[5mC]*dT*dG*dG*dG*d[5mC]*dT*k[5mC]*k[5mC]*kG; antisense) [compound 829952]”, the “% Inhibition” value under setting [5] turned out to be 2%.

As for “798996 (antisense k[5mC]*kA*k[5mC]*dA*d[5mC]*dT*d[5mC]*dA*d[5mC]*dA*d[5mC]*dT*d[5mC]*kA*k[5mC]*kA) [compound 798996]”, the “% Inhibition” value under setting [3] came to 49%.

Take “830019 (antisense kA*kG*kG*d[5mC]*d[5mC]*d[5mC]*dA*dA*d[5mC]*dA*dG*d[5mC]*d[5mC]*kA*kA*kA) [compound 830019]”: under setting [2], the “% Inhibition” value was found to be 16%.

For the substance “800051 (antisense k[5mC]*kA*kG*d[5mC]*dA*d[5mC]*dA*dT*d[5mC]*d[5mC]*dA*d[5mC]*d[5mC]*k[5mC]*kT*kT) [compound 800051]”, under setting [4], the “% Inhibition” value worked out at 20%.

With “799836 (antisense kA*kG*kA*dT*dA*dT*d[5mC]*dG*dG*d[5mC]*d[5mC]*d[5mC]*d[5mC]*k[5mC]*kT*kG) [compound 799836]”, the “% inhibition of SMAD7 mRNA expression” value under setting [6] is on record as 61%.

Take “799042 (kT*kG*k[5mC]*dT*d[5mC]*d[5mC]*dT*dG*dG*d[5mC]*dA*dG*d[5mC]*kT*kG*k[5mC]; antisense) [compound 799042]”: the “% Inhibition” value under setting [3] is reported as 33%.

Consider “829863 (antisense kA*k[5mC]*kT*dG*d[5mC]*dT*dG*d[5mC]*dG*dG*dT*dT*dG*kT*kA*k[5mC]) [compound 829863]”, for which the “% Inhibition” value under setting [5] was 31%.

On to “829888 (antisense kG*kT*k[5mC]*d[5mC]*dA*d[5mC]*dG*dG*d[5mC]*dT*dG*d[5mC]*dT*kG*k[5mC]*kA) [compound 829888]”, for which the “% Inhibition” value under setting [5] was determined as 47%.

Turning to “798930 (antisense kG*kA*kA*dA*dA*dT*dA*dT*dT*dA*dG*d[5mC]*dA*kG*k[5mC]*kA) [compound 798930]”, the “% Inhibition” value under setting [4] was 62%.

With “829845 (antisense kT*k[5mC]*k[5mC]*dG*dA*dA*dT*dT*dG*dA*dG*d[5mC]*dT*kG*kT*k[5mC]) [compound 829845]”, under setting [5], the “% Inhibition” value stood at 40%.

Regarding “830045 (k[5mC]*k[5mC]*kG*dA*dT*dT*dG*dG*d[5mC]*dA*dG*dG*dT*kT*kA*kA; antisense) [compound 830045]”, the “% Inhibition” value under setting [2] was 47%.

Take “829777 (antisense kG*kA*kG*d[5mC]*dG*dA*dG*dT*dA*dG*dG*dA*d[5mC]*kG*kA*kG) [compound 829777]”: under setting [1], the “% Inhibition” value worked out at 37%.

For “830191 (antisense k[5mC]*kT*kA*dA*dT*d[5mC]*dA*dG*dA*dT*dG*d[5mC]*d[5mC]*kT*kG*k[5mC]) [compound 830191]”, the “% Inhibition” value under setting [2] came out at 47%.

As to “799747 (antisense kA*kA*kA*dT*dG*dG*dG*dA*dA*dA*dT*dA*dA*kG*kG*k[5mC]) [compound 799747]”, the “% Inhibition” value under setting [7] turned out to be 43%.

“799237 (kA*k[5mC]*kA*dT*dA*dA*dA*d[5mC]*dT*d[5mC]*d[5mC]*dT*dT*kT*kA*kG; antisense) [compound 799237]”: the “% Inhibition” value under setting [3] is reported as 9%.

Consider “829970 (kT*kG*kG*dA*dA*dG*dG*dG*dA*dA*d[5mC]*d[5mC]*d[5mC]*k[5mC]*k[5mC]*kA; antisense) [compound 829970]”, for which the “% Inhibition” value under setting [5] amounted to 0%.

“830000 (kA*k[5mC]*kT*dG*dT*dT*dT*dG*dT*d[5mC]*dT*dT*dA*kG*k[5mC]*kT; antisense) [compound 830000]”: the “% Inhibition” value under setting [5] came out at 51%.

As to “799811 (antisense k[5mC]*kT*kG*d[5mC]*d[5mC]*dA*dA*d[5mC]*dG*dG*d[5mC]*dA*d[5mC]*kA*kG*kT) [compound 799811]”, the “% inhibition of SMAD7 mRNA expression” value under setting [6] came to 0%.

In the case of “829746 (antisense k[5mC]*k[5mC]*kG*dG*dG*d[5mC]*dG*d[5mC]*dA*d[5mC]*dG*dG*d[5mC]*kT*k[5mC]*k[5mC]) [compound 829746]”, the “% Inhibition” value under setting [1] is 46%.

Turning to “799881 (kA*kA*kT*dA*dA*dA*dT*dT*d[5mC]*d[5mC]*dA*dA*dT*kG*k[5mC]*kA; antisense) [compound 799881]”, the “% Inhibition” value under setting [2] worked out at 0%.

With “799890 (antisense k[5mC]*kA*kT*dT*dA*dA*dG*d[5mC]*d[5mC]*dA*dA*dT*dT*kT*kT*k[5mC]) [compound 799890]”, under setting [2], the “% Inhibition” value is on record as 41%.

Consider “800079 (antisense kT*kA*k[5mC]*d[5mC]*dT*dT*dA*dA*d[5mC]*dA*dA*dA*dG*k[5mC]*kT*kT) [compound 800079]”, for which the “% Inhibition” value under setting [2] is 61%.

As for “798934 (antisense kG*k[5mC]*kA*dA*dG*d[5mC]*dA*d[5mC]*dT*d[5mC]*dA*dG*dG*kA*kG*kG) [compound 798934]”, under setting [3], the “% inhibition of SMAD7 mRNA expression” value was 40%.

In the case of “799857 (kA*kG*kA*dA*d[5mC]*dT*dG*dA*dA*dA*dG*d[5mC]*dG*kG*k[5mC]*kG; antisense) [compound 799857]”, under setting [4], the “% Inhibition” value stood at 31%.

“799798 (kT*k[5mC]*k[5mC]*d[5mC]*dA*d[5mC]*dT*dT*d[5mC]*dT*d[5mC]*d[5mC]*dT*k[5mC]*kT*kG; antisense) [compound 799798]”: the “% inhibition of SMAD7 mRNA expression” value under setting [6] is given as 50%.

“799803 (kA*kG*kA*dA*dG*dG*dA*dT*dG*dA*dA*dT*dG*kT*kG*kA; antisense) [compound 799803]”: the “% Inhibition” value under setting [7] stood at 10%.

For the substance “799684 (antisense kA*kA*kT*dG*d[5mC]*dT*dG*dT*d[5mC]*dA*d[5mC]*d[5mC]*d[5mC]*kT*kG*kT) [compound 799684]”, under setting [7], the “% Inhibition” value is recorded as 52%.

For “798840 (k[5mC]*kT*k[5mC]*dT*dT*dG*dT*dT*dG*dT*d[5mC]*d[5mC]*dG*kA*kA*kT; antisense) [compound 798840]”, the “% Inhibition” value under setting [4] came to 56%.

Regarding “829736 (antisense kG*kG*kA*dG*d[5mC]*dG*dA*dA*d[5mC]*dA*dT*dG*dA*k[5mC]*k[5mC]*kT) [compound 829736]”, under setting [1], the “% Inhibition” value was found to be 41%.

Turning to “798849 (k[5mC]*kA*kG*d[5mC]*d[5mC]*dG*dA*dT*dT*dT*dT*dG*d[5mC]*kT*k[5mC]*k[5mC]; antisense) [compound 798849]”, the “% Inhibition” value under setting [2] worked out at 21%.
